Experiments:
TDP-43 = TDP-43 localization in C9ORF72 iNs; assay type: cell-based, human; details: DMSO or apilimod
Description: (§1) (A) Survival of C9ORF72 iNs with DMSO or apilimod. Log-rank test, 100 iNs per group. […] Log-rank test, 100 iNs per group. […] Mean+/−s.e.m. Kruskal-Wallis Test.

C9ORF72 DPRs = experiment: DPR levels in C9ORF72 iNs; assay type: cell-based, human
Description: 2000 approved drugs and 1800 target-annotated tool compounds were screened on C9ORF72 FTD iNs.

C9-FTD iNs = experiment: Exosome secretion from iNs; assay type: cell-based, human
Description: (A) […] of exosomes from apilimod-treated C9-FTD iNs. (B) Western blot of TSG101, TDP-43, and Neurofilament heavy chain levels in the exosome fraction secreted from control or C9-FTD iNs upon apilimod treatment. (C,D) Quantification of the exosome marker TSG101 (C) or TDP-43 (D) in the exosome fraction of control and C9-FTD iNs treated with DMSO, apilimod, or apilimod+GW4869. Kruskal-Wallis test for B, C. N=3 biological replicates per condition, one line per genotype. (E) Number of poly(GR)-GFP+ exosomes secreted from iNs expressing exogenous poly(GR)-GFP upon DMSO or apilimod treatment. N=4 biological replicates. Exosomes were labeled with CFSE-red dye to enable detection by FACS. Unpaired t-test.
To test this, exosome release from iNs upon PIKFYVE inhibition was examined. […] Thus, PIKFYVE inhibition induces the secretion of TDP-43 and C9ORF72 DPRs from iNs
(§2) PIKFYVE inhibition rescues neurodegeneration through secretory autophagy.

C9ORF72 FTD iNs = experiment: Survival of C9ORF72 FTD iNs; assay type: cell-based, human; details: DMSO or apilimod; scrambled or PIKFYVE ASOs
Description: as §1
(A, B) Survival of C9-FTD iNs treated with DMSO and Apilimod (A) or Apilimod+GW4869 (exocytosis blocker) (B). Log-rank test. 100 iNs per group. iNs quantified from 3 independent replicates per group.
Mutations in MAPT cause FTD with tau aggregates. To determine if iNs from FTD patients display neurodegenerative phenotypes, an established method to generate cortical neurons from iPSCs by forced expression of NGN2 was used. 3 FTD patient iPSC lines harboring a MAPTV337M mutation and their CRISPR-edited isogenic controls from a published cell bank were utilized. Neurons from MAPT-mutant iPSCs display increased phosphorylated and oligomeric tau, similar to post-mortem patient tissue (FIG. 18A). […] Thus, MAPT iNs display key features of FTD with tau pathology.
Thus, C9ORF72 iNs provide a robust model of FTD.
as §2

[1] = tested on: C9ORF72 dipeptide repeat proteins; experiment: DPR levels in C9ORF72-BAC mice; assay type: in vivo
Description: DRP aggregates (Poly(GR) red) accumulate in the cells (white outline) of C9-BAC mice.
(A) Mass spectrometry analysis of Optineurin (OPTN) levels in the cerebrospinal fluide (CSF) of mice 2 hours after direct intracerebroventral injection of a vehicle control or apilimod. n=3 mice per group. The ratio of Optineurin in the CSF of apilimod:vehicle-injected mice is shown. (B) Poly(GR)+ DPR punctae in wild-type or C9ORF72 mice treated with intracerebroventricular injection of apilimod for 48 hours. Mean+/−s.e.m. Data points are individual neurons taken across 3 mice per group. One-way ANOVA. […] Unpaired t-test. (D) Pikfyve qRT-PCR of whole brain. n=3 mice per group at postnatal day 7. Unpaired t-test. (E) Gait impairment scoring in wild-type (WT) and TDP-43 homozygous mice treated with a negative control (NC) ASO or Pikfyve ASO at postnatal day 1. Mean+/−s.e.m. Unpaired t-test at each time point between the negative control and Pikfyve ASO conditions for TDP-43 mice. A score of 0 indicates no phenotype and 4 indicates the most severe phenotype. (F) Vehicle or GW4869 were delivered by intraperitoneal injection every 48 h starting from day 6 in negative control and Pikfyve ASO-treated mice. Mean+/−s.e.m. One-way ANOVA at each time point between the four conditions. *p<0.05, **p<0.01, ***p<0.001, ****p<0.0001.
PIKFYVE inhibition rescues neurodegeneration in vivo. […] Since TARDBP overexpressing mice show motor deficits and neurodegeneration, we used TARDBP mice to test the efficacy of Pikfyve suppression.
Determining whether PIKfyve-targeting ASOs can reverse ALS disease progression in vivo. To determine if PIKfyve-targeting ASOs can reverse ALS disease processes in vivo, can PIKfyve ASOs lower levels of C9ORF72 dipeptide repeat proteins in mice. Dipeptide repeat proteins are generated from the C9ORF72 repeat expansion by repeat-associated non-AUG-dependent translation and are neurotoxic.
To determine if ASO-mediated Pikfyve suppression lowers C9ORF72 poly(GR) levels in mice, Pikfyve ASOs were injected into the hippocampus of adult C9ORF72-BAC mice, which harbor a C9ORF72 repeat expanded transgene and accumulate poly(GR)+ aggregates in hippocampal neurons.

sporadic ALS iMNs = experiment: Survival of sporadic ALS iMNs
Description: (A) Survival of control (CTRL) and C9ORF72 ALS/FTD patient (C9-ALS) iMNs with a 12-hour pulse treatment of excess glutamate shown for each individual line separately. iMNs quantified from 3 independent iMN conversions per line. (B-D) Immunofluorescence analysis of total TDP-43 (B) and quantification of the ratio of nuclear to cytoplasmic TDP-43 in control, C9-ALS (C), or sporadic ALS (D) iMNs. MNs from 2 controls and 2 C9-ALS patients (C) or 4 sporadic ALS patients (D) were quantified. n=30 (controls), 30 (C9-ALS/FTD), or 36 (sporadic) iMNs per line per condition from 2 biologically independent iMN conversions of 2 control, 2 C9-ALS/FTD, or 4 sporadic ALS lines were quantified. Each gray circle represents a single iMN. Median±interquartile range. Unpaired Mann-Whitney test. Scale bars: 5 μm. Dotted lines outline the nucleus and cell body. (E) Survival of control and sporadic iMNs with glutamate treatment. iMNs quantified from 3 independent iMN conversions per line. For iMN survival experiments, significance was measured by 2-sided log-rank test using the entire survival time course.
(B) Survival of C9-ALS/FTD iMNs with DMSO or apilimod. (C) Survival of sporadic ALS induced motor neurons (iMNs) with DMSO or apilimod. (D) Survival of C9-ALS/FTD iMNs with a scrambled ASO or PIKFYVE ASOs, 100 iMNs per group. […] Unpaired t-test. iMN survival experiments analyzed by log-rank test. […]

C9-ALS/FTD iMNs = experiment: Exosome secretion from iMNs; assay type: cell-based, human
Description: (A) Western blot of TSG101, TDP-43, and Neurofilament heavy chain levels in the exosome fraction secreted from control or C9-ALS/FTD iMNs upon apilimod treatment. […] Kruskal-Wallis test for B, C. N=3 biological replicates per condition, one line per genotype. (D) Number of poly(GR)-GFP+ exosomes secreted from iMNs expressing exogenous poly(GR)-GFP upon DMSO or apilimod treatment. N=4 biological replicates. Exosomes were labeled with CFSE-red dye to enable detection by FACS. Unpaired t-test.
Blocking PIKFYVE activity induces secretory autophagy. […] Thus, secretory autophagy maintains proteostasis and prevents neuronal death in TDP-43 mouse models. PIKFYVE inhibition blocks autophagosome-lysosome fusion by […] their ratio in endosomal, lysosomal and autophagosomal membranes. One might expect this to be detrimental to ALS iMNs, which can degenerate due to misfolded protein accumulation. However, inhibition of autophagosome-lysosome fusion using PIKFYVE inhibition or bafilomycin can activate secretory autophagy to jettison misfolded proteins from cells. […] To test this hypothesis, exosomal release in human iMNs upon PIKFYVE inhibition was examined. […] Thus, PIKFYVE inhibition induces the secretion of TDP-43 and C9ORF72 DPRs from iMNs.
Determining if PIKFYVE suppression rescues neurodegeneration through secretory autophagy. […] ASOs were designed targeting […]. It was confirmed that the ASOs suppressed RAB27A expression in iMNs.

[2] = western blot of exosome fraction
[3] = injection of apilimod into the hippocampus

Description for control iMNs: Drug screening iMNs from both C90RF72 and sporadic ALS patients. […] Chemical screens were then performed to search for targets that can rescue the degeneration of iMNs from multiple patients. 2000 approved drugs and 1800 target-annotated tool compounds were screened on C9ORF72 ALS/FTD iMNs.

Cc1cccc(/C=N/Nc2cc(N3CCOCC3)nc(OCCc3ccccn3)n2)c1 [apilimod]
TDP-43 mislocalization in C9ORF72 iNs (TDP-43): rescued TDP-43 mislocalization
DPR levels in C9ORF72 iNs (C9ORF72 DPRs): lowered DPR levels
control iMN survival (control iMNs): did not
release of TSG101+ exosomes from iNs (C9-FTD iNs; electron microscopy and western blotting): increased release of TSG101+ exosomes
poly(GR)-GFP+ exosomes released from iNs (C9-FTD iNs; iNs expressing poly(GR)50-GFP, FACS of CFSE-labelled exosomes): released significantly more poly(GR)-GFP+ exosomes
TDP-43 in exosomes from C9ORF72 FTD iNs (C9-FTD iNs; [2]): contained high levels of TDP-43
survival of C9ORF72 iNs (C9ORF72 FTD iNs): also rescued C9ORF72
levels of poly(GR) in C9ORF72-BAC mice [1, 3]: reduced levels
levels of poly(PR) in C9ORF72-BAC mice [1, 3]: reduced levels
DPR levels in C9ORF72-BAC mice ([1]; intracerebroventricular injection of apilimod): lowered DPR levels
sporadic ALS iMN survival (sporadic ALS iMNs): one of the most potent
poly(GR)-GFP+ exosomes released from iMNs (C9-ALS/FTD iMNs; iMNs expressing poly(GR)50-GFP, FACS): released significantly more poly(GR)-GFP+ exosomes
TDP-43 in exosomes from C9ORF72 ALS iMNs (C9-ALS/FTD iMNs; [2]): contained high levels of TDP-43
release of TSG101+ exosomes from iMNs (C9-ALS/FTD iMNs; western blotting): significantly increased the release of TSG101+ exosomes

Source: US20230098111A1, “COMPOSITIONS AND METHODS TO TREAT NEUROLOGICAL DISEASES” (University of Southern California, priority 2020, published 2023)
